Reference: patent publication US5866558A, “6-alkynyl steroids” (Regents of the University of Minnesota, priority 1997, dated 1999)
Several values for one entry are separate records, joined by “and”; a condition that tells them apart may be missing. Equal entries are not always repeated. Where two headings read alike, the source gives them in different places.

Legend:
[1] = biological target: T1, aromatase (Homo sapiens, UniProt P11511); assay: biochemical; assay type: biochemical; design: Microsomes were obtained from human placentas after normal deliveries; from tissue; host or cells: human placenta, microsomes (washed twice, lyophilized)
T1 sequence (P11511 1-503): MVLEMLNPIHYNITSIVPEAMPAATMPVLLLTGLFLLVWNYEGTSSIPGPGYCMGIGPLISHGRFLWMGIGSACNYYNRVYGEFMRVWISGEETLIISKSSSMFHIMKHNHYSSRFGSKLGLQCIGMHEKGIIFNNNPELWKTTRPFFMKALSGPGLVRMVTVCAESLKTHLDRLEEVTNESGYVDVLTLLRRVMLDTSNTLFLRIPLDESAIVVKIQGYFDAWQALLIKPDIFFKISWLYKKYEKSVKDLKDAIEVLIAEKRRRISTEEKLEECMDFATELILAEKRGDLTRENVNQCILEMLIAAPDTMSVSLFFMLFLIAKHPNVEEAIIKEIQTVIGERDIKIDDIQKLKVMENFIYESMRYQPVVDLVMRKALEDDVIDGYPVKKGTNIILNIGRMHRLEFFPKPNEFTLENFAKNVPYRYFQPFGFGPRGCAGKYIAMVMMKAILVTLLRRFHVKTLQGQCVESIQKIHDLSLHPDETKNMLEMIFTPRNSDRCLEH
Protocol: (§1) Test A. Enzyme Affinity Assay
(§2) Microsomes were obtained from human placentas after normal deliveries and prepared as described previously (Ryan, K. J. "Biological aromatization of steroids" J Biol. Chem. 1959, 234, 266-272). Following isolation of the microsomal pellets (washed twice), they were lyophilized and stored at -20° C.

[2] = biological target: T1, aromatase; assay type: biochemical; design: Microsomes were obtained from human placentas after normal deliveries; from tissue; host or cells: human placenta, microsomes (washed twice, lyophilized)
[3] = biological target: T1, aromatase; assay: Test C. Ki Determination / enzyme inactivation kinetics (Kitz and Wilson); settings: for T1/2 of enzyme inhibition / KI (inactivation): Table 2; for KI (inactivation): read-out: App. Ki(inact), apparent Ki for inactivation; for kinact: read-out: kcat
[4] = biological target: T1, aromatase; assay: Aromatase inhibition, overall results of tests A, B, and C; assay type: biochemical; design: Microsomes were obtained from human placentas after normal deliveries; from tissue; host or cells: human placenta, microsomes (washed twice, lyophilized)
Protocol: as §1, §2
Test B. Evaluation of Time-Dependent Inhibition
This determination requires measurements at initial velocities of enzyme reaction. The enzyme activity is determined following different preincubation times at various inhibitor concentrations when assayed at a substrate concentration of at least ten times the Km of androstenedione.

[5] = Incubation with rat liver homogenates (prodrug dehydration); assay type: in vitro ADME; settings: gives compound (4)
Text: Accordingly, the invention includes a compound of formula III, wherein R to R^5 are defined as above; or a pharmaceutically acceptable salt thereof. The invention also includes a pharmaceutical composition comprising a compound of formula III; or a pharmaceutically acceptable salt thereof; and a pharmaceutically acceptable diluent or carrier. Because alcohols of formula III are capable of acting as prodrugs for compounds of formula I, it may be advantageous to use an alcohol of formula III in place of a corresponding compound of formula I in any of the methods disclosed herein. Accordingly, the invention includes a method for treating a disease in a human or other mammal in need thereof in which aromatase has been implicated and inhibition of its action is desired, comprising administering to said human or mammal an effective amount of a compound of formula III; or a pharmaceutically acceptable salt thereof. The invention also includes a method for inhibiting aromatase in a mammal comprising administering to said mammal an effective amount of a compound of formula III; or a pharmaceutically acceptable salt thereof.

[6] = substrate: C[C@]12CCC(=O)C=C1CC[C@@H]1[C@@H]2CC[C@]2(C)C(=O)CC[C@@H]12; assay: purified protein, by the assay type; settings: other: natural substrate

For C[C@]12C=CC(=O)C=C1C=C[C@@H]1[C@@H]2CC[C@]2(C)C(=O)CC[C@@H]12 [1,4,6-ATD, androst-1,4,6-triene-3,17-dione], the Ki ([1]; Table 1, apparent Ki, read-out: Ki (apparent)) was 136 nM, the IC50 ([1]; Table 1, human placental microsomes, read-out: IC50) was 890 nM and the “Type of Inhibition” value ([2]; Table 1) was “Irreversible/Inactivation”.

For C[C@]12CCC(=O)C(O)=C1CC[C@@H]1[C@@H]2CC[C@]2(C)C(=O)CC[C@@H]12 [4-Hydroxy AD, 4-hydroxyandrostenedione], the IC50 ([1]; IC50) was 250 nM, the Ki ([1]; read-out: Ki (apparent)) was 40.8 nM and the “Type of Inhibition” value [2] was “Irreversible/Inactivation”.

For C#CC[C@H]1C[C@@H]2[C@H](CC[C@]3(C)C(=O)CC[C@@H]23)[C@H]2CCC(=O)C=C12 [6α-Propargyl ED], the IC50 ([1]; IC50) was 430 nM and the “Type of Inhibition” value [2] was “Reversible”.

In the case of C#CC[C@H]1C[C@@H]2[C@H](CC[C@]3(C)C(=O)CC[C@@H]23)[C@@]2(C)CCC(=O)C=C12 [6α-propynyl compound, 6α-(2-propynyl)androst-4-ene-3,17-dione], the “enzyme affinity compared with other known inhibitors” value [1] is reported as “greater enzyme affinty than other known inhibitors”.

In the case of C#CC[C@@H]1C[C@@H]2[C@H](CC[C@]3(C)C(=O)CC[C@@H]23)[C@@]2(C)CCC(=O)C=C12 [6β-Propargyl AD, 6β-Propargyl-4-androstene-3,17-dione], the “T1/2 of enzyme inhibition” value [3] is reported as 7.7 min, the KI (inactivation) [3] is reported as 46.8 nM and the kinact [3] is reported as 0.0015 s⁻¹. For the same molecule, the “irreversibility / mechanism of inhibition” value ([3]; test C) was “irreversibly bound to the enzyme”, the “affinity for the enzyme site relative to natural substrate androstenedione” value ([3]; vs androstenedione Km) was “about five times greater” and the Ki ([1]; Ki (apparent)) was 9.8 nM and 87.5 nM. The “aromatase inhibitory properties, in words” value [4] was “superior to other known aromatase inhibitors”.

With C#CC[C@@H]1C[C@@H]2[C@H](CC[C@]3(C)C(=O)CC[C@@H]23)[C@H]2CCC(=O)C=C12 [6β-Propargyl ED, 6β-Propargyl-4-estrene-3,17-dione] the “T1/2 of enzyme inhibition” value [3] was 9.75 min, the KI (inactivation) [3] was 15.4 nM and the kinact [3] was 0.0012 s⁻¹. For the same molecule, the IC50 ([1]; IC50) was 98 nM, the Ki ([1]; Ki (apparent)) was 43.5 nM and the “Type of Inhibition” value [2] was “Irreversible/Inactivation”.

With C#CC[C@]12CCC(=O)C=C1CC[C@@H]1[C@@H]2CC[C@]2(C)C(=O)CC[C@@H]12 [10β-Propargyl ED, 10-(2-propynyl)estr-4-ene-3,17-dione] the IC50 ([1]; IC50) was 42 nM, the Ki ([1]; Ki (apparent)) was 26.7 nM and the “Type of Inhibition” value [2] was “Irreversible/Inactivation”.

For C#CC[C@@H]1C[C@H]2[C@@H]3CCC(=O)[C@@]3(C)CC[C@@H]2[C@@]2(C)CCC(=O)C[C@]12O [compound (3)], the “dehydration in the presence of rat liver homogenates” value [5] was “found to dehydrate in the presence of the homogenates to give compound (4)”.

B1: aromatase (Homo sapiens) (protein)
chain: MVLEMLNPIHYNITSIVPEAMPAATMPVLLLTGLFLLVWNYEGTSSIPGPGYCMGIGPLISHGRFLWMGIGSACNYYNRVYGEFMRVWISGEETLIISKSSSMFHIMKHNHYSSRFGSKLGLQCIGMHEKGIIFNNNPELWKTTRPFFMKALSGPGLVRMVTVCAESLKTHLDRLEEVTNESGYVDVLTLLRRVMLDTSNTLFLRIPLDESAIVVKIQGYFDAWQALLIKPDIFFKISWLYKKYEKSVKDLKDAIEVLIAEKRRRISTEEKLEECMDFATELILAEKRGDLTRENVNQCILEMLIAAPDTMSVSLFFMLFLIAKHPNVEEAIIKEIQTVIGERDIKIDDIQKLKVMENFIYESMRYQPVVDLVMRKALEDDVIDGYPVKKGTNIILNIGRMHRLEFFPKPNEFTLENFAKNVPYRYFQPFGFGPRGCAGKYIAMVMMKAILVTLLRRFHVKTLQGQCVESIQKIHDLSLHPDETKNMLEMIFTPRNSDRCLEH
Work on B1 yielded a Km [6] of 55 nM.
